What all share (assay): biochemical
The target of experiment [1] is KRas G12C (Homo sapiens, UniProt P01116, G12C).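 Note: binding to KRas assessed by TR-FRET displacement after one hour incubation at room temperature, potency fitted from percent-of-control values.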
Protocol: (§1) The ability of a compound to bind to KRas was measured using a TR-FRET displacement assay. […] After a 60-minute incubation at room temperature, the reaction was measured using a BMG LABTECH CLARIO star Plus via TR-FRET. […] The POC values were fit to a 4-parameter IC50 equation and the IC50 value reported.
The target in experiment [2] is KRas G12D (Homo sapiens, UniProt P01116, G12D).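 Note: TR-FRET displacement binding assay on KRas, read after a one-hour incubation at room temperature, IC50 fitted from percent-of-control values.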
Protocol: as §1
Experiment [3] deals with KRas G12R (Homo sapiens, UniProt P01116, G12R).
Chain of KRas G12R (P01116 1-169 isoform P01116-2 G12R): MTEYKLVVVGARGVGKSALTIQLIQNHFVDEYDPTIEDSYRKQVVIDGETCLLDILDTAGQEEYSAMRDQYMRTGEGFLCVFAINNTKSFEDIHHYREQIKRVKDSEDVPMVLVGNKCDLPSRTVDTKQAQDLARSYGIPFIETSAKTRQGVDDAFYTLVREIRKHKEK
Protocol: as §1
Experiment [4] concerns the target KRas WT (Homo sapiens, UniProt P01116).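 Note: binding to KRas read as TR-FRET displacement after a one-hour room-temperature incubation, IC50 derived from percent-of-control values.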
Protocol: as §1
Experiment [5] concerns the target KRas G12V (Homo sapiens, UniProt P01116, G12V).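 Note: KRas binding measured by TR-FRET displacement at room temperature, IC50 fitted from percent of control values.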
Protocol: as §1
Experiment [6] concerns the target KRas G12A (Homo sapiens, UniProt P01116, G12A).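 Note: binding to KRas measured by TR-FRET displacement after one hour at room temperature, IC50 from a four-parameter fit of percent-of-control values.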
Protocol: as §1
Experiment [7] concerns the target KRas G12S (Homo sapiens, UniProt P01116, G12S).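 Note: TR-FRET displacement binding to KRas, read after one hour incubation at room temperature, IC50 from four-parameter fit of percent of control.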
Protocol: as §1

pIC50: −log10 of the molar value.

This passage reports IC50 results from patent US12398154B2, “Azaquinazoline pan-KRas inhibitors” (Mirati Therapeutics, Inc., priority 2020, dated 2025).

Chain of KRas G12S (P01116 1-169 isoform P01116-2 G12S): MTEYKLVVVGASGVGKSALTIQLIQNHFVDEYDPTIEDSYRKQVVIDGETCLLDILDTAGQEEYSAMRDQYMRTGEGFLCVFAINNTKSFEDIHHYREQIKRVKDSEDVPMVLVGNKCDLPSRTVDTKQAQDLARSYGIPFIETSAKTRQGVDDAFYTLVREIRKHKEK
Chain of KRas WT (P01116 1-169 isoform P01116-2): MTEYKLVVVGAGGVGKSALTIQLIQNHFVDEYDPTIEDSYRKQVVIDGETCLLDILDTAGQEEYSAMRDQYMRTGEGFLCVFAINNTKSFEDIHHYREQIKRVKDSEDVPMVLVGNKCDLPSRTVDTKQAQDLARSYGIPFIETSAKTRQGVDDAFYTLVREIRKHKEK
Chain of KRas G12C (P01116 1-169 isoform P01116-2 G12C): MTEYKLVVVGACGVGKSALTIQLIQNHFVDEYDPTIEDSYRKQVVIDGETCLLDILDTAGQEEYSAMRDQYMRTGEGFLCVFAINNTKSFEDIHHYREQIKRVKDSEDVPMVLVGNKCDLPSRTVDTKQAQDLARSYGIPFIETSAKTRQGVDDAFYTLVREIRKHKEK
Chain of KRas G12A (P01116 1-169 isoform P01116-2 G12A): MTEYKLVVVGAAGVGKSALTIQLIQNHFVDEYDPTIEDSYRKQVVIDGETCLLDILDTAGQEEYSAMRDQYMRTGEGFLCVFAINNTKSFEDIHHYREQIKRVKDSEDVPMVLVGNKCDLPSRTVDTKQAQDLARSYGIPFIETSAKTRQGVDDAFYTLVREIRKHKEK
Chain of KRas G12D (P01116 1-169 isoform P01116-2 G12D): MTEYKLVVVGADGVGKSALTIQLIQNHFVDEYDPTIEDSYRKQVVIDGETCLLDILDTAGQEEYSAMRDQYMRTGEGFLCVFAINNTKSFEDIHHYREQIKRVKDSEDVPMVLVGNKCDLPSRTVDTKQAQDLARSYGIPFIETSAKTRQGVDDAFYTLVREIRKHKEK
Chain of KRas G12V (P01116 1-169 isoform P01116-2 G12V): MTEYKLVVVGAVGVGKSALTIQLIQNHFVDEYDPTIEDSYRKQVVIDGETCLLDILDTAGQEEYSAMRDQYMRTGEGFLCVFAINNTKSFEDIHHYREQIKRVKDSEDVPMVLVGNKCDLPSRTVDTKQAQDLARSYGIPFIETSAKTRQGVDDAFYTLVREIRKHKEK

Turning to `NS(=O)(=O)CC1CCCN(c2nc(OCC34CCCN3CCC4)nc3c(F)c(-c4cccc5ccccc45)ncc23)C1` (stereo not drawn) [Example 436], the negative logarithm of the IC50 (pIC50) in experiment [1] is 6.57; in experiment [2], 6.10; in experiment [3], 6.48; in experiment [4], 6.71; in experiment [5] it was 6.19; in experiment [6], 6.69. The pIC50 in experiment [7] was 6.66.

For `O=C1CC2(CCCN(c3nc(OCC45CCCN4CCC5)nc4c(F)c(-c5cccc6cccc(F)c56)ncc34)C2)C(=O)N1` (stereo not drawn) [Example 265, 7-(8-fluoro-7-(8-fluoronaphthalen-1-yl)-2-((hexahydro-1H-pyrrolizin-7a-yl)methoxy)pyrido[4,3-d]pyrimidin-4-yl)-2,7-diazaspiro[4.5]decane-1,3-dione], the pIC50 in experiment [1] is 5.48; in experiment [2] it was 5.27; in experiment [3], 5.72; in experiment [4], 5.61; in experiment [5] it was 5.56; in experiment [6], 5.52. In addition, in experiment [7], the negative-log IC50 (pIC50) is 5.60.

Regarding `NS(=O)(=O)CC1CCCN(c2nc(OCC34CCCN3CCC4)nc3c(F)c(-c4cccc5cccc(CO)c45)ncc23)C1` (stereo not drawn) [Example 439, 1-(1-(8-fluoro-2-((hexahydro-1H-pyrrolizin-7a-yl)methoxy)-7-(8-(hydroxymethyl)naphthalen-1-yl)pyrido[4,3-d]pyrimidin-4-yl)piperidin-3-yl)methanesulfonamide], the negative logarithm of the IC50 (pIC50) in experiment [1] is 5.60; in experiment [2] it was 5.10; in experiment [3], 5.55; in experiment [4], 5.69; in experiment [5], 5.24; in experiment [6] it was 5.67. In addition, in experiment [7], the pIC50 is 5.65.

Consider `O=C1CC2(CCCN(c3nc(OCC45CCCN4CCC5)nc4c(F)c(-c5cccc6cccc(C(F)F)c56)ncc34)C2)N1` (stereo not drawn) [Example 466, 6-(7-(8-(difluoromethyl)naphthalen-1-yl)-8-fluoro-2-((hexahydro-1H-pyrrolizin-7a-yl)methoxy)pyrido[4,3-d]pyrimidin-4-yl)-1,6-diazaspiro[3.5]nonan-2-one], for which the negative logarithm of the IC50 (pIC50) was 5.64 in experiment [1]; 5.63 in experiment [2]; 5.65 in experiment [3]; 5.57 in experiment [4]; 5.78 in experiment [5]; 5.48 in experiment [6]. In addition, the pIC50 in experiment [7] is 5.67.

Take `Cc1cc(N)nc(-c2ncc3c(N4CCC[C@@](C)(O)C4)nc(OC[C@@H]4CCCN4C)nc3c2F)c1C(F)(F)F` [Example 435, (R)-1-(7-(6-amino-4-methyl-3-(trifluoromethyl)pyridin-2-yl)-8-fluoro-2-(((S)-1-methylpyrrolidin-2-yl)methoxy)pyrido[4,3-d]pyrimidin-4-yl)-3-methylpiperidin-3-ol]: the negative logarithm of the IC50 (pIC50) in experiment [1] was 5.32; in experiment [2] it was 5.41; in experiment [3], 5.16; in experiment [4], 5.35; in experiment [5] it was 5.26; in experiment [6], 5.31. Moreover, the negative-log IC50 (pIC50) in experiment [7] is 5.25.

For the compound `C#Cc1cccc2cccc(-c3ncc4c(N5CCCC(CS(N)(=O)=O)C5)nc(OCC56CCCN5CCC6)nc4c3F)c12` (stereo not drawn) [Example 437, 1-(1-(7-(8-ethynylnaphthalene-1-yl)-8-fluoro-2-((hexahydro-1H-pyrrolizin-7a-yl)methoxy)pyrido[4,3-d]pyrimidin-4-yl)piperidin-3-yl)methanesulfonamide], the pIC50 was 5.85 in experiment [1]; 5.84 in experiment [2]; 5.56 in experiment [3]; 6.15 in experiment [4]; 5.57 in experiment [5]; 5.87 in experiment [6]. In experiment [7], the negative-log IC50 (pIC50) is 6.04.

For `CCc1cccc2cccc(-c3ncc4c(N5CCCC6(CC(=O)N6)C5)nc(OCC56CCCN5CCC6)nc4c3F)c12` (stereo not drawn) [Example 288, 6-(7-(8-ethylnaphthalen-1-yl)-8-fluoro-2-((hexahydro-1H-pyrrolizin-7a-yl)methoxy)pyrido[4,3-d]pyrimidin-4-yl)-1,6-diazaspiro[3.5]nonan-2-one], the pIC50 in experiment [1] is 7.17; in experiment [2], 7.28; in experiment [3], 7.11; in experiment [4], 7.05; in experiment [5], 7.17; in experiment [6] it was 7.02. In addition, the pIC50 in experiment [7] is 7.09.

Regarding `O=C1C[C@@]2(CCN(c3nc(OCC45CCCN4CCC5)nc4c(F)c(-c5cccc6cccc(F)c56)ncc34)C2)CN1` [Example 280, (S)-7-(8-fluoro-7-(8-fluoronaphthalen-1-yl)-2-((hexahydro-1H-pyrrolizin-7a-yl)methoxy)pyrido[4,3-d]pyrimidin-4-yl)-2,7-diazaspiro[4.4]nonan-3-one], the pIC50 in experiment [1] was 5.01; in experiment [2] it was not above 4.00; in experiment [3], not above 4.00; in experiment [4] it was not above 4.00; in experiment [5] it was not above 4.00; in experiment [6], not above 4.00. For the same compound, the negative-log IC50 (pIC50) in experiment [7] was not above 4.00.

Take `C#Cc1cccc2cccc(-c3ncc4c(N5C[C@@H]6C(=O)NC(=O)[C@@H]6C5)nc(OCC56CCCN5CCC6)nc4c3F)c12` [Example 458, (3aR,6aS)-5-(7-(8-ethynylnaphthalen-1-yl)-8-fluoro-2-((hexahydro-1H-pyrrolizin-7a-yl)methoxy)pyrido[4,3-d]pyrimidin-4-yl)tetrahydropyrrolo[3,4-c]pyrrole-1,3(2H,3aH)-dione]: the negative logarithm of the IC50 (pIC50) in experiment [1] was 7.12; in experiment [2] it was 7.82; in experiment [3], 6.76; in experiment [4], 7.28; in experiment [5] it was 7.41; in experiment [6], 7.01. The compound further had a pIC50 in experiment [7] of 7.55.

Consider `CCc1cccc2cccc(-c3ncc4c(N5CCCC6(CNC(=O)C6)C5)nc(OCC56CCCN5CCC6)nc4c3F)c12` (stereo not drawn) [Example 286, 7-(7-(8-ethylnaphthalen-1-yl)-8-fluoro-2-((hexahydro-1H-pyrrolizin-7a-yl)methoxy)pyrido[4,3-d]pyrimidin-4-yl)-2,7-diazaspiro[4.5]decan-3-one], for which the pIC50 is 6.39 in experiment [1]; 6.50 in experiment [2]; 6.17 in experiment [3]; 6.22 in experiment [4]; 6.28 in experiment [5]; 6.43 in experiment [6]. This compound gave a negative logarithm of the IC50 (pIC50) in experiment [7] of 6.39.

Turning to `CCc1cccc2cccc(-c3ncc4c(N5CCCC6(CNC(=O)N6)C5)nc(OCC56CCCN5CCC6)nc4c3F)c12` (stereo not drawn) [Example 294, 7-(7-(8-ethylnaphthalen-1-yl)-8-fluoro-2-((hexahydro-1H-pyrrolizin-7a-yl)methoxy)pyrido[4,3-d]pyrimidin-4-yl)-1,3,7-triazaspiro[4.5]decan-2-one], the pIC50 in experiment [1] was 7.89; in experiment [2] it was 8.05; in experiment [3], 7.82; in experiment [4], 7.85; in experiment [5], 8.05; in experiment [6], 7.89. This compound showed a negative logarithm of the IC50 (pIC50) in experiment [7] of 7.92.

Regarding `Fc1c(-c2cccc3cccc(F)c23)ncc2c(Nc3cnc4cnccn34)nc(OCC34CCCN3CCC4)nc12` [Example 34, 8-fluoro-7-(8-fluoronaphthalen-1-yl)-N-(imidazo[1,2-a]pyrazin-3-yl)-2-((tetrahydro-1H-pyrrolizin-7a(5H)-yl)methoxy)pyrido[4,3-d]pyrimidin-4-amine], the negative logarithm of the IC50 (pIC50) is 4.46 in experiment [1]; 4.96 in experiment [2]; not above 4.00 in experiment [3]; 4.55 in experiment [4]; 4.83 in experiment [5]; 4.31 in experiment [6]. For the same compound, the negative-log IC50 (pIC50) in experiment [7] was 4.27.
